{"source": "patent EP1222921B1", "about": "“Pharmaceutical compositions of tizoxanide and/or nitazoxanide” (Romark Laboratories, L.C., priority 1997, dated 1998)", "key": {"[1]": {"system": "mature (13-week/old) Schistosoma mansoni", "experiment": "Experimentally infected mice, worm count", "type": "in vivo", "procedure": "(§1) Nitazoxanide was tested against Schistosoma mansoni and Schistosoma hematobium in experimentally infected mice. Forty (40) white mice, weighing 30 to 50 grams were allocated to two treatment groups of 20 animal per group. The first group was infected with 300-500 Schistosoma mansoni free active cercariae suspended in 0.25 ml of distilled water and administered to each mouse by intraperitoneal injection. The second group was infected in the same manner but with Schistosoma hemotobium cercariae. These two groups were then kept for a total of 70 days in the laboratory. Seventy days after infection of the animals, ten mice from each group were treated with nitazoxanide as a 1.3 mg oral dose administered, morning and evening, for 7 consecutive days. Seven days after the end of treatment tall mice were sacrificed and the worms were extracted from the liver of each animal by perfusion using tepid water (37°C). The extracted schistosomes were counted for all treatment and control animals. The efficacy of nitazoxanide was calculated busing the formula indicated below: % efficacy(a - b)/(a)x 100 [formula] Where: • a = the number of schistosomes recovered from feces in the control animals • b = the number of schistosomes recovered from feces in the treated animals"}, "[2]": {"system": "mature (13-week/old) Schistosoma hematobium", "experiment": "Experimentally infected mice, worm count", "type": "in vivo", "procedure": "as §1"}, "[3]": {"system": "MRC5 fibroblasts", "conditions": "human, 72 h"}, "[4]": {"system": "Cryptosporidium parvum", "type": "in vivo", "procedure": "An open-label study of nitazoxanide for AIDS-related cryptosporidial diarrhea documented decreased bowel movements among persons taking 500, 1000, 1500, or 2000 mg of the drug daily. […] Almost all participants had failed therapy with azithromycin or paromomycin.\nBy the end of the study, 8 of 11 had completely eradicated the parasite and the other three had substantial reductions in oocyst levels. There was a trend toward better response with doses of 1000 mg daily or higher and with longer therapy. Two trial participants had urticarial skin rashes; more than 90 percent adhered to the study regimen for more than four weeks."}, "[5]": {"system": "C. parvum oocysts", "experiment": "Intact C. parvum oocyst assay (Example III), immunofluorescence", "type": "cell-based, Cryptosporidium parvum", "conditions": "for Parasite - Mean parasite count/field (12 fields analyzed) / %Inhib - Percent inhibitation of parasite infection: 48 hr.; for %Inhib - Percent inhibitation of parasite infection: listed as NTZ", "procedure": "Each concentration of nitazoxanide and the media controls contained 0.025% DMSO as a constant. The experiment used a cell culture of MDBKF5D2 Cells grown in 7 mm chambers, and as Cryptosporidium parvum: GCH1 oocysts, 5 X 10^4 per well, and was conducted to compare paromomycin (positive control) against nitazoxanide (experimental drug). […] 5 x 104 C. parvum oocysts per well are incubated in the pre-mentioned concentrations of nitazoxanide at 37°C (8% CO2) on confluent MDBKF5D2 cell monolayers. The level of infection in each well was determined and computer analyzed by an immunofluorescence assay at 48 hours. […] (Medium control count - Drug test count)/(Medium control count)x 100 [formula] Conc. - µg/ml; Parasite - Mean parasite count/field (12 fields analyzed); %Inhib - Percent inhibitation of parasite infection; % Tox- Percent toxicity to cells by the drug."}, "[6]": {"system": "S. mansoni", "conditions": "posttreatment positive egg-counts; report by Abaza et al.; cited from earlier work"}, "[7]": {"system": "Cryptosporidium parvum", "experiment": "Preliminary clinical trial in AIDS patients with chronic cryptosporidial diarrhea", "type": "in vivo", "conditions": "of 16 evaluable by the eighth week, oral 500 to 2000 mg daily", "procedure": "In a preliminary clinical trial, 30 AIDS patients with chronic cryptosporidial diarrhea were treated with oral nitazoxanide from 500 to 2000 mg daily. […] Twenty-eight people completed two or more weeks of therapy and 16 of those were evaluable for a therapeutic response by the eighth week of treatment. […] Six patients met both clinical and parasitological response criteria for benefit. Patients who received higher daily doses of drug for longer periods of time were more likely to have a positive response."}, "[8]": {"system": "MDBKF5D2 cell monolayers", "type": "cell-based", "conditions": "cattle", "procedure": "The drug was incubated on the monolayers at 37°C and 8% CO2. At 24 hours (trial 1) and 48 hours (trial 2), MTS (Owen's solution) the PMS were added to each well at concentrations of 333 µg/ml and 25 µM respectively. The plate was returned to the incubator in the dark to develop for two hours. At two hours, 100 µl of each supernatant was transferred to a new microtiter plate and read in the ELISA reader at 490nm. Results were recorded and analyzed. Percent toxicity was calculated by subtracting the mean optical density (OD) of the drug supernatants from the mean optical density (OD) of the medium control supernatants (no drug), dividing by the OD of the medium control and multiplying by 100. (OD medium - OD drug)/(OD medium)x 100 [formula]"}, "[9]": {"conditions": "10 mice, 2.6 mg/day for 7 consecutive days"}, "[10]": {"conditions": "individual mice No. 1-10, 1.3 mg oral morning and evening for 7 consecutive days, 70 days after infection"}, "[11]": {"conditions": "total of 10 mice, 2.6 mg/day for 7 consecutive days"}, "[12]": {"conditions": "after 23 weeks, 500, 1000, 1500, or 2000 mg daily"}}, "note": "Where “and” joins values, the source holds several entries; their conditions need not be identical. Equal values may be shown once. Read-outs that look alike come from different tables or passages of the source."}
{"smiles": "CC(=O)Oc1ccccc1C(=O)Nc1ncc([N+](=O)[O-])s1", "note": "[Nitazoxanide, 2-(acetolyloxy)-N-(5-nitro 2-thiazoly) benzamide]", "values": [{"measurement": "No. of flukes removed from liver of Treated Mice, Mean/Mouse", "setting": "[1]; [9]", "result": 9.9}, {"measurement": "No. of flukes removed from liver of Treated Mice", "setting": "[1]; [10]", "result": "12 and 8 and 7 and 10 (3×) and 9 (2×) and 11 and 13"}, {"measurement": "No. of flukes removed from liver of Treated Mice, Total", "setting": "[1]; [11]", "result": 99}, {"measurement": "Efficacy (worm reduction)", "setting": "[1]; versus control mice, 2.6 mg/day for 7 consecutive days", "result": 59.91, "unit": "%"}, {"measurement": "No. of flukes removed from liver of Treated Mice, Mean/Mouse", "setting": "[2]; [9]", "result": 2.4}, {"measurement": "No. of flukes removed from liver of Treated Mice", "setting": "[2]; [10]", "result": "2 (5×) and 0.0 and 3 (2×) and 4 (2×)"}, {"measurement": "No. of flukes removed from liver of Treated Mice, Total", "setting": "[2]; [11]", "result": 24}, {"measurement": "Efficacy (worm reduction)", "setting": "[2]; versus control animals, 2.6 mg/day for 7 consecutive days", "result": 82.85, "unit": "%"}, {"measurement": "concentrations with marked toxicity on the cell monolayer", "setting": "[3]", "result": "≥ 2500", "unit": "ng/mL"}, {"measurement": "complete clinical response (one to three predominantly formed bowel movements daily)", "setting": "[4]; [12]", "result": "9 of 13"}, {"measurement": "partial clinical response", "setting": "[4]; [12]", "result": "4 of 13"}, {"measurement": "completely eradicated the parasite", "setting": "[4]; by the end of the study", "result": "8 of 11"}, {"measurement": "substantial reductions in oocyst levels", "setting": "[4]; by the end of the study, remaining of 11", "result": "three"}, {"measurement": "Parasite - Mean parasite count/field (12 fields analyzed)", "setting": "[5]; Conc 0.01 µg/ml, 0.025% DMSO", "result": 714.33}, {"measurement": "Parasite - Mean parasite count/field (12 fields analyzed)", "setting": "[5]; Conc 0.1 µg/ml, 0.025% DMSO", "result": 643.42}, {"measurement": "Parasite - Mean parasite count/field (12 fields analyzed)", "setting": "[5]; Conc 1 µg/ml, 0.025% DMSO", "result": 39.67}, {"measurement": "%Inhib - Percent inhibitation of parasite infection", "setting": "[5]; Conc 1 µg/ml, 0.025% DMSO", "result": 93.69, "unit": "%"}, {"measurement": "Parasite - Mean parasite count/field (12 fields analyzed)", "setting": "[5]; Conc 10 µg/ml, 0.025% DMSO", "result": 11.75}, {"measurement": "%Inhib - Percent inhibitation of parasite infection", "setting": "[5]; Conc 10 µg/ml, 0.025% DMSO", "result": 98.13, "unit": "%"}, {"measurement": "inhibition at 0.01 µg/mL", "setting": "[5]; Cryptosporidium parvum, 48 h, Conc 0.01 µg/ml, 0.025% DMSO, read-out: %Inhib - Percent inhibitation of parasite infection", "result": "≤ 0", "unit": "%"}, {"measurement": "inhibition at 0.1 µg/mL", "setting": "[5]; Cryptosporidium parvum, 48 h, Conc 0.1 µg/ml, 0.025% DMSO, read-out: %Inhib - Percent inhibitation of parasite infection", "result": "≤ 0", "unit": "%"}, {"measurement": "inhibition at 1 µg/mL", "setting": "[5]; Cryptosporidium parvum, 48 h, Conc 1 µg/ml, 0.025% DMSO, read-out: %Inhib - Percent inhibitation of parasite infection", "result": 94, "unit": "%"}, {"measurement": "inhibition at 10 µg/mL", "setting": "[5]; Cryptosporidium parvum, 48 h, Conc 10 µg/ml, 0.025% DMSO, read-out: %Inhib - Percent inhibitation of parasite infection", "result": 98, "unit": "%"}, {"measurement": "lowest concentration giving more than 90% of inhibition", "setting": "[5]; in vitro against Cryptosporidium parvum", "result": 1, "unit": "µg/mL"}, {"measurement": "efficacy in patients", "setting": "[6]", "result": "not effective"}, {"measurement": "individuals with a marked reduction or eradication of the parasite in the stool", "setting": "[7]", "result": 10}, {"measurement": "patients who met both clinical and parasitological response criteria", "setting": "[7]", "result": "Six"}, {"measurement": "people with the organism becoming undetectable", "setting": "[7]", "result": "four"}, {"measurement": "persons with a 50 percent or greater reduction in daily bowel movement frequency", "setting": "[7]", "result": 12}, {"measurement": "Percent Toxicity", "setting": "[8]; 24 h, 0.1 µg/ml", "result": 19.3, "unit": "%"}, {"measurement": "Percent Toxicity", "setting": "[8]; 24 h, 1 µg/ml", "result": 8.3, "unit": "%"}, {"measurement": "Percent Toxicity", "setting": "[8]; 24 h, 10 µg/ml", "result": 65.1, "unit": "%"}, {"measurement": "Percent Toxicity", "setting": "[8]; 24 h, 100 µg/ml", "result": 88.1, "unit": "%"}, {"measurement": "Percent Toxicity", "setting": "[8]; 48 h, 0.02 µg/ml", "result": 21.23, "unit": "%"}, {"measurement": "Percent Toxicity", "setting": "[8]; 48 h, 0.2 µg/ml", "result": 16.56, "unit": "%"}, {"measurement": "Percent Toxicity", "setting": "[8]; 48 h, 2 µg/ml", "result": 24.93, "unit": "%"}, {"measurement": "Percent Toxicity", "setting": "[8]; 48 h, 20 µg/ml", "result": 92.87, "unit": "%"}]}
